Reference: ChEMBL document CHEMBL5042539, “Structure-Guided Discovery of the Novel Covalent Allosteric Site and Covalent Inhibitors of Fructose-1,6-Bisphosphate Aldolase to Overcome the Azole Resistance of Candidiasis” (J Med Chem, 2022)
In brackets after ≈: the same amount, converted by molar mass.

Columns and labels:
[1] = Cytotoxicity against human HaCaT cells; assay type: toxicity, cell-based
Candida albicans [2] = experiment: Antifungal activity against fluconazole resistant Candida albicans 904 incubated for 48 hrs by CLSI based broth microdilution method; assay type: functional
[3] = Toxicity in po dosed rat assessed as lethal dose; assay type: organism-based; settings: in vivo
Candida albicans [4] = experiment: Antifungal activity against fluconazole resistant Candida albicans 103 incubated for 48 hrs by CLSI based broth microdilution method; assay type: functional
Candida albicans [5] = experiment: Antifungal activity against fluconazole resistant Candida albicans 7781 incubated for 48 hrs by CLSI based broth microdilution method; assay type: functional
Candida albicans [6] = experiment: Antifungal activity against Candida albicans SC5314 incubated for 48 hrs by CLSI based broth microdilution method; assay type: functional
[7] = Inhibition of Candida albicans Fructose-1,6-Bisphosphate Aldolase C157S mutant transfected in Escherichia coli BL21 (DE3) incubated for 3 mins in presence of NADH by spectrophotometric analysis
[8] = Inhibition of Candida albicans Fructose-1,6-Bisphosphate Aldolase C111S mutant transfected in Escherichia coli BL21 (DE3) incubated for 3 mins in presence of NADH by spectrophotometric analysis
Candida albicans [9] = experiment: Selectivity ratio of IC50 for inhibition of Candida albicans Fructose-1,6-Bisphosphate Aldolase C292S mutant to IC50 for inhibition of wild type Candida albicans Fructose-1,6-Bisphosphate Aldolase
[10] = Inhibition of Candida albicans Fructose-1,6-Bisphosphate Aldolase C292S mutant transfected in Escherichia coli BL21 (DE3) incubated for 3 mins in presence of NADH by spectrophotometric analysis
[11] = Inhibition of wild type Candida albicans Fructose-1,6-Bisphosphate Aldolase transfected in Escherichia coli BL21 (DE3) incubated for 3 mins in presence of NADH by spectrophotometric analysis
Candida albicans [12] = experiment: Inhibition of Candida albicans Fructose-1,6-Bisphosphate Aldolase C292S mutant transfected in Escherichia coli BL21 (DE3) assessed as Km by kinetic based analysis
Candida albicans [13] = experiment: Binding affinity to Candida albicans Fructose-1,6-Bisphosphate Aldolase assessed as ratio of kinact/Ki incubated for 12 to 40 mins by NADH-linked enzymatic assay; settings: time 12-40 min
Candida albicans [14] = experiment: Inhibition of Candida albicans Fructose-1,6-Bisphosphate Aldolase C292S mutant transfected in Escherichia coli BL21 (DE3) assessed as Kcat by kinetic based analysis
Candida albicans [15] = experiment: Inhibition of Candida albicans Fructose-1,6-Bisphosphate Aldolase C111S mutant transfected in Escherichia coli BL21 (DE3) assessed as Km by kinetic based analysis
Candida albicans [16] = experiment: Inhibition of wild type Candida albicans Fructose-1,6-Bisphosphate Aldolase transfected in Escherichia coli BL21 (DE3) assessed as Kcat/Km by kinetic based analysis
Candida albicans [17] = experiment: Inhibition of Candida albicans Fructose-1,6-Bisphosphate Aldolase C292S mutant transfected in Escherichia coli BL21 (DE3) at 500 uM incubated for 3 mins in presence of NADH by spectrophotometric analysis relative to control
Candida albicans [18] = experiment: Inhibition of Candida albicans Fructose-1,6-Bisphosphate Aldolase C157S mutant transfected in Escherichia coli BL21 (DE3) assessed as Kcat/Km by kinetic based analysis
Candida albicans [19] = experiment: Inhibition of wild type Candida albicans Fructose-1,6-Bisphosphate Aldolase transfected in Escherichia coli BL21 (DE3) assessed as Kcat by kinetic based analysis
Candida albicans [20] = experiment: Inhibition of Candida albicans Fructose-1,6-Bisphosphate Aldolase C111S mutant transfected in Escherichia coli BL21 (DE3) assessed as Kcat by kinetic based analysis
Candida albicans [21] = experiment: Inhibition of wild type Candida albicans Fructose-1,6-Bisphosphate Aldolase transfected in Escherichia coli BL21 (DE3) assessed as Km by kinetic based analysis
Candida albicans [22] = experiment: Binding affinity to Candida albicans Fructose-1,6-Bisphosphate Aldolase assessed as Kinact incubated for 12 to 40 mins by NADH-linked enzymatic assay; settings: time 12-40 min
Candida albicans [23] = experiment: Inhibition of Candida albicans Fructose-1,6-Bisphosphate Aldolase C292S mutant transfected in Escherichia coli BL21 (DE3) assessed as Kcat/Km by kinetic based analysis
[24] = Binding affinity to Candida albicans Fructose-1,6-Bisphosphate Aldolase assessed as inhibition constant incubated for 12 to 40 mins by NADH-linked enzymatic assay
Candida albicans [25] = experiment: Inhibition of Candida albicans Fructose-1,6-Bisphosphate Aldolase C157S mutant transfected in Escherichia coli BL21 (DE3) assessed as Kcat by kinetic based analysis
Candida albicans [26] = experiment: Inhibition of Candida albicans Fructose-1,6-Bisphosphate Aldolase C111S mutant transfected in Escherichia coli BL21 (DE3) assessed as Kcat/Km by kinetic based analysis
Candida albicans [27] = experiment: Inhibition of Candida albicans Fructose-1,6-Bisphosphate Aldolase C157S mutant transfected in Escherichia coli BL21 (DE3) assessed as Km by kinetic based analysis

## O=c1c2ccccc2[se]n1-c1ccccc1 [EBSELEN]
[1]
  IC50: > 32 µM
Candida albicans [2]
  MIC80: 2 µg/mL (≈ 7.29 µM)
[3]
  LD: > 4600 mg/kg
Candida albicans [4]
  MIC80: 2 µg/mL (≈ 7.29 µM)
Candida albicans [5]
  MIC80: 2 µg/mL (≈ 7.29 µM)
Candida albicans [6]
  MIC80: 2 µg/mL (≈ 7.29 µM)
[7]
  IC50: 0.031 µM
[8]
  IC50: 0.0726 µM
Candida albicans [9]
  Ratio IC50: 80.4
[10]
  IC50: 1.15 µM
[11]
  IC50: 0.0143 µM

## CCCCn1sc2ccccc2c1=O
Candida albicans [12]
  Km: 45.7 µM
Candida albicans [13]
  Ratio: 300 M⁻¹ s⁻¹
Candida albicans [14]
  kcat: 24.8 s⁻¹
Candida albicans [15]
  Km: 25.1 µM
Candida albicans [16]
  kcat/Km: 1.8e+06 M⁻¹ s⁻¹
Candida albicans [17]
  inhibition: < 50%
Candida albicans [18]
  kcat/Km: 2e+06 M⁻¹ s⁻¹
Candida albicans [19]
  kcat: 38.6 s⁻¹
[7]
  IC50: 12.5 µM
Candida albicans [20]
  kcat: 36.1 s⁻¹
Candida albicans [21]
  Km: 21.9 µM
[8]
  IC50: 9.9 µM
Candida albicans [22]
  Kinact: 0.00178 s⁻¹
Candida albicans [23]
  kcat/Km: 500000 M⁻¹ s⁻¹
Candida albicans [9]
  Ratio IC50: > 28.3
[24]
  Ki: 5.96 µM
Candida albicans [25]
  kcat: 34.7 s⁻¹
Candida albicans [26]
  kcat/Km: 1.4e+06 M⁻¹ s⁻¹
[10]
  IC50: > 500 µM
[11]
  IC50: 17.7 µM
Candida albicans [27]
  Km: 17.8 µM
